Earlier results on 60 substances are cited in patent US20250231185A1, “Coronavirus T Cell Epitopes, Megapools and Uses Thereof” (La Jolla Institute for Immunology, priority 2021, published 2025).

The first data set deals with CD8+ T cells. Particulars: CD8R (D) megapool epitopes; dominant = recognized by 3 or more donors/different studies; cited from earlier work.
Regarding 1776 (FLLNKEMYL) [compound 1776], the Dominant entry is recorded as “Yes (more dominant epitopes are defined by being recognized by 3 or more donors/different studies)”.

With 1777 (TSEDMLNPNY) [compound 1777], the Dominant result is given as “Yes (more dominant epitopes are defined by being recognized by 3 or more donors/different studies)”. 1778 (TPKYKFVRI) [compound 1778]: the Dominant result is reported as “Yes (more dominant epitopes are defined by being recognized by 3 or more donors/different studies)”. As to 1779 (VRIQPGQTF) [compound 1779], the Dominant entry is reported as “Yes (more dominant epitopes are defined by being recognized by 3 or more donors/different studies)”. For 1780 (FLNGSCGSV) [compound 1780], the Dominant result was “Yes (more dominant epitopes are defined by being recognized by 3 or more donors/different studies)”. On to 1781 (GTDLEGNFY) [compound 1781], for which the Dominant result is reported as “Yes (more dominant epitopes are defined by being recognized by 3 or more donors/different studies)”. For 1782 (VLAWLYAAV) [compound 1782], the Dominant result was “Yes (more dominant epitopes are defined by being recognized by 3 or more donors/different studies)”. As to 1783 (FLNRFTTTL) [compound 1783], the Dominant entry is recorded as “Yes (more dominant epitopes are defined by being recognized by 3 or more donors/different studies)”. As for 1784 (SAFAMMFVK) [compound 1784], the Dominant result is “Yes (more dominant epitopes are defined by being recognized by 3 or more donors/different studies)”.

For the substance 1785 (FLLPSLATV) [compound 1785], the Dominant entry is on record as “Yes (more dominant epitopes are defined by being recognized by 3 or more donors/different studies)”.

Turning to 1786 (MPASWVMRI) [compound 1786], the Dominant entry is “Yes (more dominant epitopes are defined by being recognized by 3 or more donors/different studies)”.

As to 1787 (KLKDCVMYA) [compound 1787], the Dominant result is “Yes (more dominant epitopes are defined by being recognized by 3 or more donors/different studies)”. Take 1788 (SMWALIISV) [compound 1788]: the Dominant result was “Yes (more dominant epitopes are defined by being recognized by 3 or more donors/different studies)”. As to 1790 (SEFSSLPSY) [compound 1790], the Dominant entry is listed as “Yes (more dominant epitopes are defined by being recognized by 3 or more donors/different studies)”. As for 1791 (NTCDGTTFTY) [compound 1791], the Dominant entry is reported as “Yes (more dominant epitopes are defined by being recognized by 3 or more donors/different studies)”. Take 1792 (FTYASALWEI) [compound 1792]: the Dominant result is reported as “Yes (more dominant epitopes are defined by being recognized by 3 or more donors/different studies)”. Consider 1795 (ALRANSAVK) [compound 1795], for which the Dominant result is “Yes (more dominant epitopes are defined by being recognized by 3 or more donors/different studies)”.

Regarding 1797 (CTDDNALAYY) [compound 1797], the Dominant result is listed as “Yes (more dominant epitopes are defined by being recognized by 3 or more donors/different studies)”. In the case of 1798 (YTELEPPCRF) [compound 1798], the Dominant entry was “Yes (more dominant epitopes are defined by being recognized by 3 or more donors/different studies)”.

Regarding 1799 (VTDTPKGPK) [compound 1799], the Dominant result is on record as “Yes (more dominant epitopes are defined by being recognized by 3 or more donors/different studies)”. Take 1800 (MDLFMRIFTI) [compound 1800]: the Dominant result was “Yes (more dominant epitopes are defined by being recognized by 3 or more donors/different studies)”.

Take 1801 (FVRATATIPI) [compound 1801]: the Dominant entry is recorded as “Yes (more dominant epitopes are defined by being recognized by 3 or more donors/different studies)”.

On to 1802 (IPIQASLPF) [compound 1802], for which the Dominant entry was “Yes (more dominant epitopes are defined by being recognized by 3 or more donors/different studies)”. On to 1803 (IVGVALLAVF) [compound 1803], for which the Dominant entry is “Yes (more dominant epitopes are defined by being recognized by 3 or more donors/different studies)”. For 1804 (ALSKGVHFV) [compound 1804], the Dominant entry is on record as “Yes (more dominant epitopes are defined by being recognized by 3 or more donors/different studies)”.

Turning to 1805 (YLYALVYFL) [compound 1805], the Dominant result is “Yes (more dominant epitopes are defined by being recognized by 3 or more donors/different studies)”. Regarding 1806 (VYFLQSINF) [compound 1806], the Dominant result is “Yes (more dominant epitopes are defined by being recognized by 3 or more donors/different studies)”. Consider 1807 (LLYDANYFL) [compound 1807], for which the Dominant entry is “Yes (more dominant epitopes are defined by being recognized by 3 or more donors/different studies)”. In the case of 1808 (FTSDYYQLY) [compound 1808], the Dominant result is given as “Yes (more dominant epitopes are defined by being recognized by 3 or more donors/different studies)”. Regarding 1809 (YYQLYSTQL) [compound 1809], the Dominant result is listed as “Yes (more dominant epitopes are defined by being recognized by 3 or more donors/different studies)”.

With 1810 (HLVDFQVTI) [compound 1810], the Dominant entry is “Yes (more dominant epitopes are defined by being recognized by 3 or more donors/different studies)”.

As for 1811 (QLRARSVSPK) [compound 1811], the Dominant entry is recorded as “Yes (more dominant epitopes are defined by being recognized by 3 or more donors/different studies)”. As for 1812 (RARSVSPKL) [compound 1812], the Dominant entry was “Yes (more dominant epitopes are defined by being recognized by 3 or more donors/different studies)”.

As for 1813 (KLFIRQEEV) [compound 1813], the Dominant result is listed as “Yes (more dominant epitopes are defined by being recognized by 3 or more donors/different studies)”. For the substance 1814 (VFITLCFTLK) [compound 1814], the Dominant entry is on record as “Yes (more dominant epitopes are defined by being recognized by 3 or more donors/different studies)”. For 1815 (IMLIIFWFSL) [compound 1815], the Dominant entry is “Yes (more dominant epitopes are defined by being recognized by 3 or more donors/different studies)”. 1816 (IQYIDIGNY) [compound 1816]: the Dominant result was “Yes (more dominant epitopes are defined by being recognized by 3 or more donors/different studies)”. With 1817 (KLGSLVVRC) [compound 1817], the Dominant result is given as “Yes (more dominant epitopes are defined by being recognized by 3 or more donors/different studies)”.

On to 1818 (LEYHDVRVVL) [compound 1818], for which the Dominant entry was “Yes (more dominant epitopes are defined by being recognized by 3 or more donors/different studies)”.

Staying with this data set, now noted: CD8RE megapool peptides (non-spike SARS-CoV-2 antigens); dominant epitope Yes/No; cited from earlier work.
For 2901 (SLVKPSFYV) [compound 2901], the Dominant result is given as “Yes (more dominant epitopes are defined by being recognized by 3 or more donors/different studies)”. Regarding 2902 (YVYSRVKNL) [compound 2902], the Dominant entry is “Yes (more dominant epitopes are defined by being recognized by 3 or more donors/different studies)”. In the case of 2903 (GTITVEELK) [compound 2903], the Dominant entry is “Yes (more dominant epitopes are defined by being recognized by 3 or more donors/different studies)”. With 2904 (KLLEQWNLV) [compound 2904], the Dominant result is given as “Yes (more dominant epitopes are defined by being recognized by 3 or more donors/different studies)”. 2905 (FLFLTWICL) [compound 2905]: the Dominant entry was “Yes (more dominant epitopes are defined by being recognized by 3 or more donors/different studies)”. Regarding 2906 (NRFLYIIKL) [compound 2906], the Dominant entry is “Yes (more dominant epitopes are defined by being recognized by 3 or more donors/different studies)”. Consider 2907 (TLACFVLAAV) [compound 2907], for which the Dominant entry was “Yes (more dominant epitopes are defined by being recognized by 3 or more donors/different studies)”. Regarding 2909 (RLFARTRSMW) [compound 2909], the Dominant entry is recorded as “Yes (more dominant epitopes are defined by being recognized by 3 or more donors/different studies)”. On to 2910 (SMWSFNPET) [compound 2910], for which the Dominant entry is “Yes (more dominant epitopes are defined by being recognized by 3 or more donors/different studies)”. In the case of 2911 (SELVIGAVIL) [compound 2911], the Dominant entry is “Yes (more dominant epitopes are defined by being recognized by 3 or more donors/different studies)”. Consider 2912 (AVILRGHLR) [compound 2912], for which the Dominant result is “Yes (more dominant epitopes are defined by being recognized by 3 or more donors/different studies)”. For the substance 2913 (ATSRTLSYY) [compound 2913], the Dominant result is listed as “Yes (more dominant epitopes are defined by being recognized by 3 or more donors/different studies)”. As for 2914 (ATSRTLSYYK) [compound 2914], the Dominant entry is on record as “Yes (more dominant epitopes are defined by being recognized by 3 or more donors/different studies)”.

Regarding 2915 (RYRIGNYKL) [compound 2915], the Dominant entry was “Yes (more dominant epitopes are defined by being recognized by 3 or more donors/different studies)”. For 2917 (NTASWFTAL) [compound 2917], the Dominant entry is on record as “Yes (more dominant epitopes are defined by being recognized by 3 or more donors/different studies)”. As for 2918 (KFPRGQGVPI) [compound 2918], the Dominant result was “Yes (more dominant epitopes are defined by being recognized by 3 or more donors/different studies)”. 2919 (FPRGQGVPI) [compound 2919]: the Dominant result is “Yes (more dominant epitopes are defined by being recognized by 3 or more donors/different studies)”. Take 2920 (YYRRATRRIR) [compound 2920]: the Dominant result was “Yes (more dominant epitopes are defined by being recognized by 3 or more donors/different studies)”. Regarding 2921 (RIRGGDGKMK) [compound 2921], the Dominant entry was “Yes (more dominant epitopes are defined by being recognized by 3 or more donors/different studies)”. As for 2922 (KMKDLSPRW) [compound 2922], the Dominant entry is on record as “Yes (more dominant epitopes are defined by being recognized by 3 or more donors/different studies)”.

As for 2923 (LSPRWYFYYL) [compound 2923], the Dominant result is given as “Yes (more dominant epitopes are defined by being recognized by 3 or more donors/different studies)”.
